Reference: patent US5041567A, “Antibacterial monic acid derivatives” (Beecham Group plc, priority 1982, dated 1991)
In brackets after ≈: the same amount, converted by molar mass. Like-named read-outs stand apart in the source and are kept apart here.

Assays:
M. suipneumoniae NB12 = assay: MIC against mycoplasma in vitro; type: cell-based; conditions: Mesomycoplasma hyopneumoniae, 144 h; M. suipneumoniae NB12; Friis broth, 0.9% agarose, 6 days, 37° C.; read-out: MIC
M. suipneumoniae JF 435 = assay: MIC against mycoplasma in vitro; type: cell-based; conditions: Mesomycoplasma hyopneumoniae, JF435, 144 h; M. suipneumoniae JF 435; 6 days, 37° C.; read-out: MIC
M. suipneumoniae Str. 11 = assay: MIC against mycoplasma in vitro; type: cell-based; conditions: Mesomycoplasma hyopneumoniae
M. suipneumoniae MS 16 = assay: MIC against mycoplasma in vitro; type: cell-based; conditions: Mesomycoplasma hyopneumoniae, MS16, 144 h
[1] = test system: M. suipneumoniae PW/C/210; assay: MIC against mycoplasma in vitro; type: cell-based; conditions: Mesomycoplasma hyopneumoniae, 144 h
M. suipneumoniae UCD 1 = assay: MIC against mycoplasma in vitro; type: cell-based; conditions: Mesomycoplasma hyopneumoniae, UCD1, 144 h; M. suipneumoniae UCD 1; 6 days, 37° C.; read-out: MIC
M. suipneumoniae TAM 6N = assay: MIC against mycoplasma in vitro; type: cell-based; conditions: Mesomycoplasma hyopneumoniae, TAM6N, 144 h; M. suipneumoniae TAM 6N; 6 days, 37° C.; read-out: MIC
[2] = test system: M. suipneumoniae ATCC 25095; assay: MIC against mycoplasma in vitro; type: cell-based; conditions: Mesomycoplasma hyopneumoniae, ATCC25095, 144 h
[3] = test system: M. suipneumoniae NCTC 10110; assay: MIC against mycoplasma in vitro; type: cell-based; conditions: Mesomycoplasma hyopneumoniae, NCTC10110, 144 h; M. suipneumoniae NCTC 10110; 6 days, 37° C.; read-out: MIC
M. hyorhinis ATCC 25021 = assay: MIC against mycoplasma in vitro; type: cell-based; conditions: Mesomycoplasma hyorhinis, ATCC25021, 144 h
[4] = test system: M. bovigenitalium ATCC 14173; assay: MIC against mycoplasma in vitro; type: cell-based; conditions: 144 h
M. dispar NCTC 10125 = assay: MIC against mycoplasma in vitro; type: cell-based; conditions: 144 h
M. gallisepticum S6 = assay: MIC against mycoplasma in vitro; type: cell-based; conditions: Mycoplasmoides gallisepticum, 144 h; M. gallisepticum S6; 6 days, 37° C.; read-out: MIC
E. coli NCTC 10418 [5] = assay: MIC against human bacteria in vitro; type: cell-based; conditions: Escherichia coli, NCTC10418; E. coli NCTC 10418; agar with 5% chocolated horse blood, 18 hours, 37° C.; read-out: MIC
P. mirabilis 889 = assay: MIC against human bacteria in vitro; type: cell-based; conditions: Proteus mirabilis; P. mirabilis 889; 5% chocolated horse blood agar, 18 hours; read-out: MIC
[6] = test system: Ps. aeruginosa NCTC 10662; assay: MIC against human bacteria in vitro; type: cell-based; conditions: Pseudomonas aeruginosa, NCTC10662; Ps. aeruginosa NCTC 10662; 5% chocolated horse blood agar, 18 hours; read-out: MIC
[7] = test system: Haemophilus influenzae Wy21; assay: MIC against human bacteria in vitro; type: cell-based
[8] = test system: Neisseria catarrhalis 1502; assay: MIC against human bacteria in vitro; type: cell-based; conditions: Neisseria catarrhalis 1502; 5% chocolated horse blood agar, 18 hours; read-out: MIC
[9] = test system: Corynebacterium xerosis 9755; assay: MIC against human bacteria in vitro; type: cell-based; conditions: Corynebacterium xerosis 9755; 5% chocolated horse blood agar, 18 hours; read-out: MIC
Sarcina lutea 8340 = assay: MIC against human bacteria in vitro; type: cell-based; conditions: Micrococcus luteus; Sarcina lutea 8340; 5% chocolated horse blood agar, 18 hours; read-out: MIC
Staph. aureus Oxford = assay: MIC against human bacteria in vitro; type: cell-based; conditions: Staphylococcus aureus; Staph. aureus Oxford; 5% chocolated horse blood agar, 18 hours; read-out: MIC
Staph. aureus Russell = assay: MIC against human bacteria in vitro; type: cell-based; conditions: Staphylococcus aureus; Staph. aureus Russell; 5% chocolated horse blood agar, 18 hours; read-out: MIC
Staph. aureus W2827 = assay: MIC against human bacteria in vitro; type: cell-based; conditions: Staphylococcus aureus; Staph. aureus W2827; 5% chocolated horse blood agar, 18 hours; read-out: MIC
[10] = test system: Strep. pyogenes R80/421-A; assay: MIC against human bacteria in vitro; type: cell-based; conditions: Streptococcus pyogenes; Strep. pyogenes R80/421-A; 5% chocolated horse blood agar, 18 hours; read-out: MIC
Strep. agalactiae 2788-B = assay: MIC against human bacteria in vitro; type: cell-based; conditions: Streptococcus agalactiae; Strep. agalactiae 2788-B; 5% chocolated horse blood agar, 18 hours; read-out: MIC
Strep. pneumoniae CN33 = assay: MIC against human bacteria in vitro; type: cell-based; conditions: Streptococcus pneumoniae; Strep. pneumoniae CN33; 5% chocolated horse blood agar, 18 hours; read-out: MIC
E. coli NCTC 10418 [11] = assay: MIC against veterinary bacteria in vitro; conditions: Escherichia coli, NCTC10418, 18 h
Description: (§1) The activity of the compounds of the Examples against various veterinarily important bacteria, was assayed in vitro using two-fold serial dilutions in Diagnostic Sensitivity Test Agar inoculated with 10^4 organisms.

E. coli E1 = assay: MIC against veterinary bacteria in vitro; conditions: Escherichia coli, E1, 18 h
Description: as §1

S. dublin S7 = assay: MIC against veterinary bacteria in vitro; conditions: Salmonella enterica, S7, 18 h
Description: as §1

Past. multocida PA1 = assay: MIC against veterinary bacteria in vitro; conditions: Pasteurella multocida, PA1, 18 h
Description: as §1

Past. multocida PA2 = assay: MIC against veterinary bacteria in vitro; conditions: Pasteurella multocida, PA2, 18 h
Description: as §1

Past. haemolytica PA5 = assay: MIC against veterinary bacteria in vitro; conditions: Mannheimia haemolytica, PA5, 18 h
Description: as §1

[12] = test system: Staph. aureus 152 (pen. sens); assay: MIC against veterinary bacteria in vitro; conditions: Staphylococcus aureus, 18 h
Description: as §1

[13] = test system: Strep. suis (group D) SPS11; assay: MIC against veterinary bacteria in vitro; conditions: Streptococcus suis, 18 h
Description: as §1

Strep. agalactiae SPA1 = assay: MIC against veterinary bacteria in vitro; conditions: Streptococcus agalactiae, SPA1, 18 h
Description: as §1

C/C(=C\c1ncc(-c2ccc(CO)cc2)o1)C[C@@H]1OC[C@H](C[C@@H]2O[C@H]2[C@@H](C)[C@H](C)O)[C@@H](O)[C@H]1O [Example 13, 5-p-Hydroxymethylphenyl-2-(1-normon-2-yl) oxazole A]
MIC (M. suipneumoniae NB12): 0.1 µg/mL (≈ 0.211 µM)
MIC (M. suipneumoniae JF 435): 0.25 µg/mL (≈ 0.528 µM)
MIC (M. suipneumoniae Str. 11; 144 h, M. suipneumoniae Str. 11, 6 days, 37° C., read-out: MIC): 0.1 µg/mL (≈ 0.211 µM)
MIC (M. suipneumoniae MS 16; M. suipneumoniae MS 16, 6 days, 37° C., read-out: MIC): 0.1 µg/mL (≈ 0.211 µM)
MIC ([1]; M. suipneumoniae PW/C/210, 6 days, 37° C., read-out: MIC): 0.1 µg/mL (≈ 0.211 µM)
MIC (M. suipneumoniae UCD 1): 0.25 µg/mL (≈ 0.528 µM)
MIC (M. suipneumoniae TAM 6N): 0.25 µg/mL (≈ 0.528 µM)
MIC ([2]; M. suipneumoniae ATCC 25095, 6 days, 37° C., read-out: MIC): 0.25 µg/mL (≈ 0.528 µM)
MIC [3]: 0.25 µg/mL (≈ 0.528 µM)
MIC (M. hyorhinis ATCC 25021): 0.1 µg/mL (≈ 0.211 µM)
MIC [4]: 0.025 µg/mL (≈ 0.0528 µM)
MIC (M. dispar NCTC 10125): 0.05 µg/mL (≈ 0.106 µM)
MIC (M. gallisepticum S6): 0.5 µg/mL (≈ 1.06 µM)
MIC (E. coli NCTC 10418 [5]): > 128 µg/mL
MIC (P. mirabilis 889): > 128 µg/mL
MIC [6]: > 128 µg/mL
MIC ([7]; Haemophilus influenzae, WY21, 18 h): 1 µg/mL (≈ 2.11 µM)
MIC [8]: 4 µg/mL (≈ 8.45 µM)
MIC [9]: 64 µg/mL (≈ 135 µM)
MIC (Sarcina lutea 8340): 128 µg/mL (≈ 270 µM)
MIC (Staph. aureus Oxford): 4 µg/mL (≈ 8.45 µM)
MIC (Staph. aureus Russell): 4 µg/mL (≈ 8.45 µM)
MIC (Staph. aureus W2827): 4 µg/mL (≈ 8.45 µM)
MIC [10]: 4 µg/mL (≈ 8.45 µM)
MIC (Strep. agalactiae 2788-B): 2 µg/mL (≈ 4.22 µM)
MIC (Strep. pneumoniae CN33): 4 µg/mL (≈ 8.45 µM)
MIC (E. coli NCTC 10418 [11]): > 80 µg/mL
MIC (E. coli E1): > 80 µg/mL
MIC (S. dublin S7): > 80 µg/mL
MIC (Past. multocida PA1): 2.5 µg/mL (≈ 5.28 µM)
MIC (Past. multocida PA2): 0.312 µg/mL (≈ 0.659 µM)
MIC (Past. haemolytica PA5): 40 µg/mL (≈ 84.5 µM)
MIC [12]: 1.25 µg/mL (≈ 2.64 µM)
MIC [13]: 10 µg/mL (≈ 21.1 µM)
MIC (Strep. agalactiae SPA1): 10 µg/mL (≈ 21.1 µM)

C/C(=C\c1ncc(-c2ccccc2)o1)C[C@@H]1OC[C@H](C[C@@H]2O[C@H]2[C@@H](C)[C@H](C)O)[C@@H](O)[C@H]1O [Example 1, 2-(1-normon-2-yl)-5-phenyloxazole A]
MIC (M. suipneumoniae NB12): 1 µg/mL (≈ 2.25 µM)
MIC (M. suipneumoniae JF 435): 1 µg/mL (≈ 2.25 µM)
MIC (M. suipneumoniae Str. 11; STR.11, 144 h): 0.5 µg/mL (≈ 1.13 µM)
MIC (M. suipneumoniae MS 16): 0.5 µg/mL (≈ 1.13 µM)
MIC [1]: 0.5 µg/mL (≈ 1.13 µM)
MIC (M. suipneumoniae UCD 1): 1 µg/mL (≈ 2.25 µM)
MIC (M. suipneumoniae TAM 6N): 1 µg/mL (≈ 2.25 µM)
MIC [2]: 0.5 µg/mL (≈ 1.13 µM)
MIC [3]: 1 µg/mL (≈ 2.25 µM)
MIC (M. hyorhinis ATCC 25021): 0.5 µg/mL (≈ 1.13 µM)
MIC (M. dispar NCTC 10125; M. dispar NCTC 10125, 6 days, 37° C., read-out: MIC): 0.1 µg/mL (≈ 0.225 µM)
MIC (M. gallisepticum S6): 2.5 µg/mL (≈ 5.64 µM)
MIC (E. coli NCTC 10418 [5]): > 100 µg/mL
MIC (P. mirabilis 889): > 100 µg/mL
MIC [6]: > 100 µg/mL
MIC ([7]; Haemophilus influenzae Wy21, 5% chocolated horse blood agar, 18 hours, read-out: MIC): 1 µg/mL (≈ 2.25 µM)
MIC [8]: 10 µg/mL (≈ 22.5 µM)
MIC [9]: > 100 µg/mL
MIC (Sarcina lutea 8340): ≥ 100 µg/mL
MIC (Staph. aureus Oxford): 5 µg/mL (≈ 11.3 µM)
MIC (Staph. aureus Russell): 5 µg/mL (≈ 11.3 µM)
MIC (Staph. aureus W2827): 5 µg/mL (≈ 11.3 µM)
MIC [10]: 1 µg/mL (≈ 2.25 µM)
MIC (Strep. agalactiae 2788-B): 5 µg/mL (≈ 11.3 µM)
MIC (Strep. pneumoniae CN33): 2.5 µg/mL (≈ 5.64 µM)
MIC (E. coli NCTC 10418 [11]): > 80 µg/mL
MIC (E. coli E1): > 80 µg/mL
MIC (S. dublin S7): > 80 µg/mL
MIC (Past. multocida PA1): 10 µg/mL (≈ 22.5 µM)
MIC (Past. multocida PA2): 1.25 µg/mL (≈ 2.82 µM)
MIC (Past. haemolytica PA5): 80 µg/mL (≈ 180 µM)
MIC [12]: 1.25 µg/mL (≈ 2.82 µM)
MIC [13]: 20 µg/mL (≈ 45.1 µM)
MIC (Strep. agalactiae SPA1): 1.25 µg/mL (≈ 2.82 µM)
